The results in this text go back to US20120309798A1, “Tumour Treatment Agents and Method” (Vivolux AB, priority 2009, published 2012).

pIC50: −log10 of the molar value. Where two headings read alike, the source gives them in different places.

For assay [1], the system named is ALL (Acute Lymphocytic Leukemia) patient tumor cells. The assay can be described thus: Fluorometric Microculture Cytotoxicity Assay (FMCA), patient tumor samples, ALL. It is filed as cell-based. The note with it: Homo sapiens, range over n=21 samples. The source says: (§1) Cell culture. Patient tumor samples (98) and preparations (4) of normal peripheral blood mononuclear cells (PBMC), detailed in Table 1, were used to determine the activity of VLX50 and, for comparison, six other cytotoxic drugs chosen to represent different mechanistic classes.
(§2) The tumor samples were obtained by bone marrow/peripheral blood sampling, routine surgery or diagnostic biopsy. Leukemic cells and PBMCs were isolated by 1.077 g ml-1 Ficoll-Paque centrifugation (Larsson et al., 1992). Tumor tissue from solid tumor samples was minced into small pieces and tumor cells were isolated by collagenase dispersion followed by Percoll density gradient centrifugation (Csoka et al., 1994). […] Cell viability was determined by trypan blue exclusion test and the proportion of tumor cells in the preparation was judged by inspection of May-Grunvald-Giemsa stained cytospin slides (FIG. 1a). […]
(§3) Fluorometric Microculture Cytotoxicity Assay. The Fluorometric Microculture Cytotoxicity Assay, FMCA, described in detail previously (Lindhagen et al., 2008), is based on measurement of fluorescence generated from hydrolysis of fluorescein diacetate (FDA) to fluorescein by cells with intact plasma membranes. […] Quality criteria for a successful assay included a mean coefficient of variation of less than 30% in the control and a fluorescence signal in control wells of more than 5 times the blank. […]

The test system of assay [2] is cells from CLL and normal PBMC. The assay can be described thus: Tumor cell specificity: drug effect in CLL cells versus normal PBMC, FMCA. It is filed as cell-based, human. The note with it: PBMC n=4, CLL n=9; FIG. 2c.
Source text: as §1
The tumor samples were obtained by bone marrow/peripheral blood sampling, routine surgery or diagnostic biopsy. Leukemic cells and PBMCs were isolated by 1.077 g ml-1 Ficoll-Paque centrifugation (Larsson et al., 1992). Tumor tissue from solid tumor samples was minced into small pieces and tumor cells were isolated by collagenase dispersion followed by Percoll density gradient centrifugation (Csoka et al., 1994). The sampling of primary tumor cells was approved by the local ethics committee at Uppsala University Hospital. Cell viability was determined by trypan blue exclusion test and the proportion of tumor cells in the preparation was judged by inspection of May-Grunvald-Giemsa stained cytospin slides (FIG. 1a). All samples used in this study contained more than 70% tumor cells.
Fluorometric Microculture Cytotoxicity Assay. The Fluorometric Microculture Cytotoxicity Assay, FMCA, described in detail previously (Lindhagen et al., 2008), is based on measurement of fluorescence generated from hydrolysis of fluorescein diacetate (FDA) to fluorescein by cells with intact plasma membranes. Cells were seeded in the drug-prepared 384-well plates using the pipetting robot Precision 2000 (Bio-Tek Instruments Inc., Winooski, Vt.). The number of cells per well were 2500-5000. Two columns without drugs served as controls and one column with medium only served as blank. The plates were incubated for 72 h and then transferred to an integrated HTS SAIGAN Core System consisting of an ORCA robot (Beckman Coulter) with CO2 incubator (Cytomat 2C, Kendro, Sollentuna, Sweden), dispensor module (Multidrop 384, Titertek, Huntsville, Ala.), washer module (ELx 405, Bio-Tek Instruments Inc), delidding station, plate hotels, barcode reader (Beckman Coulter), liquid handler (Biomek 2000, Beckman Coulter) and a multipurpose reader (FLUOstar Optima, BMG Labtech GmbH, Offenburg, Germany) for automated FMCA. Quality criteria for a successful assay included a mean coefficient of variation of less than 30% in the control and a fluorescence signal in control wells of more than 5 times the blank.
Dose-response data were analyzed using calculated survival index values and the software program GraphPadPrism4 (GraphPad Software Inc., San Diego, Calif., USA). Data was processed using non-linear regression to a standard sigmoidal dose-response model to obtain IC50-values (inhibitory concentration 50%).
In FIG. 2a the response rates for VLX50 at 4 μM for the patient samples are listed according to diagnoses. […] Lung cancer, AML and CML had intermediate response rates. The relative effect of VLX50 and six standard cytotoxic drugs, in solid and hematological tumor samples, expressed as the S/H ratio, is shown in FIG. 2b. […] The results for the standard drugs are consistent with their main clinical use.

Assay [3] relates to Renal cancer patient tumor cells. As to the kind of experiment: FMCA, patient tumor samples, renal cancer. The assay is classed as cell-based. The settings on record: Homo sapiens.
Source text: as §1, §2, §3

Assay [4] deals with normal peripheral blood mononuclear cells (PBMC). As to the kind of experiment: FMCA, normal peripheral blood mononuclear cells. The assay is classed as cell-based. The note with it: Homo sapiens.
Source text: as §1, §2, §3

In assay [5] the test system is CLL (Chronic Lymphocytic Leukemia) patient tumor cells. As to the kind of experiment: FMCA, patient tumor samples, CLL. The assay is classed as cell-based. The note with it: Homo sapiens, range over n=9 samples.
Source text: as §1, §2, §3

The test system of assay [6] is Lung cancer patient tumor cells. As to the kind of experiment: FMCA, patient tumor samples, lung cancer. The assay is classed as cell-based. The settings on record: Homo sapiens.
Source text: as §1, §2, §3

The subject of assay [7] is Assorted tumors: one appendix cancer and one pseudomyxomo peritonei. As to the kind of experiment: FMCA, patient tumor samples, assorted tumors. The assay is classed as cell-based. The note with it: Homo sapiens.
Source text: as §1, §2, §3

In assay [8] the test system is intracellular free iron in MCF-7 cells. As to the kind of experiment: Measurement of intracellular iron (Phen Green). The settings on record: MCF-7, Phen Green fluorescent probe, 100 μM or 500 μM. The assay is classed as cell-based. The source says: Measurement of intracellular iron. The fluorescent membrane permeable Fe sensor, Phen Green (Invitrogen AB, Göteborg, Sweden) was used to measure changes in intracellular free iron concentration. Fluorescence of the PhenGreen indicators is quenched upon binding Fe^2+ and Fe^3+. The emission intensity of the PhenGreen FL indicator depends on both the metal ion's concentration and the indicator's concentration. MCF-7 cells were harvested and diluted to 500,000 per mL in complete medium, loaded with 10 μM PhenGreen diacetate for 45 minutes and plated to flat-bottomed 96W microtiter plates. The plates were washed ×2 with PBS, resuspended in 180 μl PBS per well and subsequently analyzed by a plate reading fluorometer Fluostar Optima which is programmed to scan fluorescence once a minute for 20 minutes with a break after 5 minutes, during which 20 μl PBS, or VLX50 (100 μM or 500 μM) was added.
Mechanism of action. Mechanistic exploration was performed using gene expression analysis of drug treated tumor cell cultures to generate a drug specific signature. The breast cancer cell line MCF-7 was treated with VLX50 or vehicle (DMSO) and analyzed for gene expression using the Affymetrix U1300plus chip. […] This query signature was subsequently submitted to the GSEA and the Connectivity map databases and strong connections to hypoxia inducible factor (HIF1 alfa) and iron chelators were retrieved. […]

Assay [9] concerns NHL (Non-Hodgkins Lymphoma) patient tumor cells. The assay can be described thus: FMCA, patient tumor samples, NHL. The assay is classed as cell-based. The settings on record: Homo sapiens, range over n=13 samples.
Source text: as §1, §2, §3

For assay [10], the system named is solid and hematological patient tumor samples. As to the kind of experiment: Relative effect on solid and hematological tumor samples (S/H ratio), FMCA. The assay is classed as cell-based, human. The note with it: n=98 patient samples; FIG. 2b.
Source text: as §1, §2, §3

For assay [11], the system named is Breast cancer patient tumor cells. As to the kind of experiment: FMCA, patient tumor samples, breast cancer. It is filed as cell-based. The settings on record: Homo sapiens.
Source text: as §1, §2, §3

Where [12] appears, read: n=7, 72 h FMCA, read-out: Median IC50.
Setting [13] is: range over n=7 samples, read-out: IC50 Range.

The term pIC50 denotes −log10 of the IC50, conventionally taken in molar units. Regarding `COCCCNC(=S)N/N=C\c1ccccn1` [VLX50, N1-(3-methoxypropyl)-2-(pyridylmethylidene)-hydrazine-1-carbothioamide], the negative logarithm of the IC50 (pIC50) in assay [1] was 4.95 to 7.26; in [3] (setting [12]) it was less than 4.40; in [3] (setting [13]), 4.40 to 4.62; in [4] (n=4, 72 h FMCA, read-out: Median IC50), 5.05; in assay [4] (range over n=4 samples, read-out: IC50 Range), 4.88 to 5.54; in assay [5], 5.03 to 7.46. Also, the pIC50 in [6] (n=6, 72 h FMCA, read-out: Median IC50) is 4.87; in [6] (range over n=6 samples, read-out: IC50 Range), 4.40 to 6.29; in assay [7] (n=2, 72 h FMCA, read-out: Median IC50), 5.11; in [7] (range over n=2 samples, read-out: IC50 Range) it was 4.88 to 5.80; in assay [9], 4.40 to 6.55; in [11] (setting [12]) it was 5.08. Also, the negative logarithm of the IC50 (pIC50) in assay [11] (setting [13]) is 4.40 to 6.06. Also, in assay [2], the “PBMC/CLL median IC50 ratio” value is 7.6. Besides, the Intracellular iron concentration entry in [8] is “decrease”. Moreover, the “S/H ratio (ratio between total response rates for solid and hematological samples)” value in assay [10] was 0.73.
